Data reported in ChEMBL document CHEMBL3621145, “Synthesis of imidazothiadiazolebenzimidazole conjugates as mitochondrial apoptosis inducers” (Medchemcomm, 2014).
Calls of active or inactive are those of the source. The rule behind the calls is not given here.

Experiments:
A549 = experiment: Anticancer activity against human A549 cells by MTT assay; type: functional, cell-based
A-375 = experiment: Anticancer activity against human A375 cells by MTT assay; type: functional, cell-based
ME-180 [1] = experiment: Anticancer activity against human ME180 cells by MTT assay; type: functional, cell-based
DU-145 = experiment: Anticancer activity against human DU145 cells by MTT assay; type: functional, cell-based
ME-180 [2] = experiment: Induction of apoptosis in human ME180 cells assessed as early apoptotic cells at 1 uM for 24 hrs by annexin V/PI staining based flow cytometry (reference value: 0.2%); type: functional
ME-180 [3] = experiment: Induction of apoptosis in human ME180 cells assessed as necrotic cells at 1 uM for 24 hrs by annexin V/PI staining based flow cytometry (reference value: 11.7%); type: functional
ME-180 [4] = experiment: Cell cycle arrest in human ME180 cells assessed as accumulation at G2/M phase at <1 uM; type: functional, cell-based
ME-180 [5] = experiment: Cell cycle arrest in human ME180 cells assessed as accumulation at G1 phase at 1 uM after 48 hrs by FACS analysis (reference value: 59.9%); type: functional
ME-180 [6] = experiment: Cell cycle arrest in human ME180 cells assessed as accumulation at G2/M phase at 1 uM after 48 hrs by FACS analysis (reference value: 13.2%); type: functional
ME-180 [7] = experiment: Induction of apoptosis in human ME180 cells assessed as viable cells at 1 uM for 24 hrs by annexin V/PI staining based flow cytometry (reference value: 83.1%); type: functional; details: ME-180, 24 h, read-out: Activity
ME-180 [8] = experiment: Cell cycle arrest in human ME180 cells assessed as accumulation at S phase at 1 uM after 48 hrs by FACS analysis (reference value: 19.3%); type: functional
ME-180 [9] = experiment: Cell cycle arrest in human ME180 cells assessed as accumulation at SubG1 phase at 1 uM after 48 hrs by FACS analysis (reference value: 7.0%); type: functional
ME-180 [10] = experiment: Induction of apoptosis in human ME180 cells assessed as DNA fragmentation at 1 uM after 48 hrs; type: functional, cell-based
ME-180 [11] = experiment: Induction of apoptosis in human ME180 cells assessed as late apoptotic cells at 1 uM for 24 hrs by annexin V/PI staining based flow cytometry (reference value: 5%); type: functional
ME-180 [12] = experiment: Induction to apoptosis in human ME180 cells assessed as increase in caspase-3 activity at 1 uM for 48 hrs relative to control; type: functional
ME-180 [13] = experiment: Induction of apoptosis in human ME180 cells assessed as cytoplasmic condensation at 1 uM for 24 hrs by Hoechst staining analysis; type: functional, cell-based
ME-180 [14] = experiment: Cell cycle arrest in human ME180 cells assessed as accumulation at G2/M phase at 0.5 uM after 48 hrs by FACS analysis (reference value: 13.2%); type: functional
ME-180 [15] = experiment: Induction of apoptosis in human ME180 cells assessed as nuclear fragmentation at 1 uM for 24 hrs by Hoechst staining analysis; type: functional, cell-based
ME-180 [16] = experiment: Induction of apoptosis in human ME180 cells assessed as mitochondrial membrane depolarization at 1 uM for 24 hrs by using JC-1 dye; type: functional, cell-based
ME-180 [17] = experiment: Cell cycle arrest in human ME180 cells assessed as accumulation at SubG1 phase at 0.5 uM after 48 hrs by FACS analysis (reference value: 7.0%); type: functional
ME-180 [18] = experiment: Induction of apoptosis in human ME180 cells assessed as presence of apoptotic bodies at 1 uM for 24 hrs by Hoechst staining analysis; type: functional, cell-based
ME-180 [19] = experiment: Cell cycle arrest in human ME180 cells assessed as accumulation at S phase at 0.5 uM after 48 hrs by FACS analysis (reference value: 19.3%); type: functional
ME-180 [20] = experiment: Cell cycle arrest in human ME180 cells assessed as accumulation at G1 phase at 0.5 uM after 48 hrs by FACS analysis (reference value: 59.9%); type: functional

| SMILES | IC50 (A549) [µM] | IC50 (A-375) [µM] | IC50 (ME-180 [1]) [µM] | IC50 (DU-145) [µM] | other results |
| --- | --- | --- | --- | --- | --- |
| Cc1nn2c(-c3nc4cc(O)ccc4[nH]3)c(-c3ccccc3)nc2s1 | 19.4 | 19.1 | 16.4 | 20.6 | – |
| Cc1ccc2[nH]c(-c3c(-c4ccc(F)cc4)nc4sc(C)nn34)nc2c1 | 11.7 | 7.7 | 6.6 | 19.9 | – |
| Cc1nn2c(-c3nc4cc(C(F)(F)F)ccc4[nH]3)c(-c3ccc(F)cc3)nc2s1 | 12.7 | 7.3 | 5.8 | 15.8 | – |
| Cc1nn2c(-c3nc4c(C)c(C)ccc4[nH]3)c(-c3ccccc3)nc2s1 | 18.4 | 22.9 | 15.8 | > 30 | – |
| Cc1nn2c(-c3nc4ccccc4[nH]3)c(-c3ccc(F)cc3)nc2s1 | > 30 | 22.2 | 18.1 | > 30 | – |
| Cc1ccc(-c2nc3sc(C)nn3c2-c2nc3cc(C)ccc3[nH]2)cc1 | 9.8 | 6.1 | 4.5 | 10.7 | – |
| Cc1ccc(-c2nc3sc(C)nn3c2-c2nc3cc(Cl)ccc3[nH]2)cc1 | 4.4 | 5.01 | 3.6 | 7.3 | – |
| Cc1nn2c(-c3nc4cc(C)c(C)cc4[nH]3)c(-c3ccc(F)cc3)nc2s1 | > 30 | 7.6 | 6.1 | > 30 | – |
| Cc1nn2c(-c3nc4cc(Cl)c(F)cc4[nH]3)c(-c3ccccc3)nc2s1 | 16.4 | 20.8 | 16.9 | > 30 | – |
| COC(=O)Nc1nc2cc(C(=O)c3cccs3)ccc2[nH]1 [NOCODAZOLE] | 2.5 | 0.2 | 1.7 | 2.1 | – |
| COc1cccc2c1C(=O)c1c(O)c3c(c(O)c1C2=O)C[C@@](O)(C(=O)CO)C[C@@H]3O[C@H]1C[C@H](N)[C@H](O)[C@H](C)O1 [DOXORUBICIN] | 1.1 | 1.2 | 0.5 | 2.4 | Activity (ME-180 [2]): 0.7%; Activity (ME-180 [3]): 16.8%; Activity (ME-180 [4]): Active; Activity (ME-180 [5]): 64.8%; Activity (ME-180 [6]): 10.9%; viability at 1 µM (ME-180 [7]): 67.5%; Activity (ME-180 [8]): 16.1%; Activity (ME-180 [9]): 7.7%; Activity (ME-180 [10]): Active; Activity (ME-180 [11]): 15.1%; fold change (FC) (ME-180 [12]): 3 |
| COc1ccc(-c2nc3sc(C)nn3c2-c2nc3cc(Cl)ccc3[nH]2)cc1 | 7.9 | 4.3 | 2.6 | 15.8 | – |
| COc1ccc(-c2nc3sc(C)nn3c2-c2nc3c(C)c(C)ccc3[nH]2)cc1 | 16.2 | 5.8 | 3.7 | 14.2 | – |
| Cc1nn2c(-c3nc4ccccc4[nH]3)c(-c3ccccc3)nc2s1 | 16.6 | 19.9 | 16.9 | > 30 | – |
| COc1ccc(-c2nc3sc(C)nn3c2-c2nc3cc(Cl)c(F)cc3[nH]2)cc1 | 17.9 | 6.8 | 4.6 | > 30 | – |
| COc1ccc(-c2nc3sc(C)nn3c2-c2nc3cc(C)c(C)cc3[nH]2)cc1 | 16.5 | 12.5 | 12.3 | 23.3 | – |
| Cc1nn2c(-c3nc4cc(Cl)ccc4[nH]3)c(-c3ccccc3)nc2s1 | 16.9 | 7.7 | 5.4 | 25.1 | – |
| COc1ccc(-c2nc3sc(C)nn3c2-c2nc3cc(C)ccc3[nH]2)cc1 | 18.4 | 10.9 | 8.7 | 25.1 | – |
| Cc1nn2c(-c3nc4cc(Cl)c(Cl)cc4[nH]3)c(-c3ccccc3)nc2s1 | 13.6 | 2.8 | 0.5 | 19.1 | Activity (ME-180 [2]): 1%; Activity (ME-180 [3]): 17.7%; Activity (ME-180 [13]): Active; Activity (ME-180 [5]): 72.4%; Activity (ME-180 [14]): 10.4%; Activity (ME-180 [15]): Active; Activity (ME-180 [16]): Active; Activity (ME-180 [6]): 1.6%; viability at 1 µM (ME-180 [7]): 58.7%; Activity (ME-180 [8]): 9.3%; Activity (ME-180 [9]): 16.3%; Activity (ME-180 [17]): 5.4%; Activity (ME-180 [10]): Active; Activity (ME-180 [11]): 22.6%; Activity (ME-180 [18]): Active; Activity (ME-180 [19]): 15.7%; Activity (ME-180 [20]): 68.1%; fold change (FC) (ME-180 [12]): 3 |
| Cc1ccc(-c2nc3sc(C)nn3c2-c2nc3c(C)c(C)ccc3[nH]2)cc1 | 10.3 | 11.4 | 9.7 | 12.5 | – |
| Cc1ccc2[nH]c(-c3c(-c4ccccc4)nc4sc(C)nn34)nc2c1 | 12.5 | 20.4 | 15.8 | 14.4 | – |
| Cc1nn2c(-c3nc4cc(F)ccc4[nH]3)c(-c3ccccc3)nc2s1 | > 30 | 18.1 | 15.7 | 16.9 | – |
| Cc1ccc(-c2nc3sc(C)nn3c2-c2nc3cc(Cl)c(F)cc3[nH]2)cc1 | 10.3 | 1.04 | 0.7 | 11.8 | Activity (ME-180 [2]): 0.8%; Activity (ME-180 [3]): 9.6%; Activity (ME-180 [13]): Active; Activity (ME-180 [5]): 75.7%; Activity (ME-180 [14]): 6.7%; Activity (ME-180 [15]): Active; Activity (ME-180 [16]): Active; Activity (ME-180 [6]): 2.3%; viability at 1 µM (ME-180 [7]): 73.1%; Activity (ME-180 [8]): 10.1%; Activity (ME-180 [9]): 11.6%; Activity (ME-180 [17]): 14.1%; Activity (ME-180 [10]): Active; Activity (ME-180 [11]): 16.5%; Activity (ME-180 [18]): Active; Activity (ME-180 [19]): 12.3%; Activity (ME-180 [20]): 66.6%; fold change (FC) (ME-180 [12]): 3 |
| Cc1nn2c(-c3nc4cc(Cl)ccc4[nH]3)c(-c3ccc(F)cc3)nc2s1 | 10.2 | 4.8 | 1.9 | 14.4 | – |
| Cc1nn2c(-c3nc4cc(Cl)c(F)cc4[nH]3)c(-c3ccc(F)cc3)nc2s1 | > 30 | 17.7 | 13.9 | > 30 | – |
| Cc1nn2c(-c3nc4cc(Cl)c(Cl)cc4[nH]3)c(-c3ccc(F)cc3)nc2s1 | > 30 | 14.2 | 10 | > 30 | – |
| Cc1nn2c(-c3nc4cc(C(F)(F)F)ccc4[nH]3)c(-c3ccccc3)nc2s1 | 13.6 | 5.2 | 3.9 | 19.6 | – |
| Cc1nn2c(-c3nc4cc(C)c(C)cc4[nH]3)c(-c3ccccc3)nc2s1 | > 30 | 22.5 | 19.9 | 19.8 | – |
